Source: ChEMBL document CHEMBL3044788, “α-(Substituted-phenoxyacetoxy)-α-heterocyclylmethylphosphonates: synthesis, herbicidal activity, inhibition on pyruvate dehydrogenase complex (PDHc), and application as postemergent herbicide against broadleaf weeds” (J Agric Food Chem, 2013)

Tests used:
Format in all cases: functional
[1] = system: Brassica rapa subsp. oleifera; test: Herbicidal activity against two to three-leaf stage Brassica rapa subsp. oleifera assessed as inhibition of plant growth at 450 g/ha in greenhouse by postemergence herbicidal activity assay; settings: post-emergence, read-out: GI
[2] = system: Eclipta prostrata; test: Herbicidal activity against two to three-leaf stage Eclipta prostrata assessed as inhibition of plant growth at 450 g/ha in greenhouse by post-emergence herbicidal activity assay; settings: read-out: GI
[3] = system: Brassica rapa subsp. oleifera; test: Herbicidal activity against two to three-leaf stage Brassica rapa subsp. oleifera assessed as inhibition of plant growth at 150 g/ha in greenhouse by postemergence herbicidal activity assay; settings: post-emergence, read-out: GI
[4] = system: Amaranthus retroflexus; test: Herbicidal activity against 2 to 3 leaf stage Amaranthus retroflexus assessed as inhibition of plant growth at 450 g/ha in greenhouse by postemergence herbicidal activity assay; settings: post-emergence, read-out: GI
[5] = system: Eclipta prostrata; test: Herbicidal activity against two to three-leaf stage Eclipta prostrata assessed as inhibition of plant growth at 150 g/ha in greenhouse by post-emergence herbicidal activity assay; settings: read-out: GI
[6] = system: Abutilon theophrasti; test: Herbicidal activity against two to three-leaf stage Abutilon theophrasti (velvetleaf) assessed as inhibition of plant growth at 450 g/ha in greenhouse by post-emergence herbicidal activity assay; settings: read-out: GI
[7] = system: Abutilon theophrasti; test: Herbicidal activity against two to three-leaf stage Abutilon theophrasti (velvetleaf) assessed as inhibition of plant growth at 150 g/ha in greenhouse by post-emergence herbicidal activity assay; settings: read-out: GI
[8] = system: Amaranthus retroflexus; test: Herbicidal activity against 2 to 3 leaf stage Amaranthus retroflexus assessed as inhibition of plant growth at 150 g/ha in greenhouse by postemergence herbicidal activity assay; settings: post-emergence, read-out: GI

Row | Structure (SMILES) | inhibition of growth at 450 g/ha [1] [%] | inhibition of growth at 450 g/ha [2] [%] | inhibition of growth at 150 g/ha [3] [%] | inhibition of growth at 450 g/ha [4] [%] | inhibition of growth at 150 g/ha [5] [%] | inhibition of growth at 450 g/ha [6] [%] | inhibition of growth at 150 g/ha [7] [%] | inhibition of growth at 150 g/ha [8] [%]
1 | COP(=O)(OC)C(OC(=O)COc1ccc(Cl)cc1Cl)c1cccs1 (stereo not drawn) | 100 | 100 | 90 | 100 | 80 | 100 | 90 | 90
2 | COP(=O)(OC)C(OC(=O)COc1cccc(Cl)c1Cl)c1cccs1 (stereo not drawn) | 40 | 85 | 0 | 60 | 40 | 40 | 0 | 40
3 | COP(=O)(OC)C(OC(=O)COc1ccc(Cl)cc1C)c1cccs1 (stereo not drawn) | 95 | 100 | 80 | 100 | 75 | 90 | 60 | 80
4 | COP(=O)(OC)C(OC(=O)COc1ccc(Cl)cc1)c1ccco1 (stereo not drawn) | – | – | 75 | – | 70 | – | 75 | 70
5 | COP(=O)(OC)C(OC(=O)COc1cccc(Cl)c1Cl)c1ccco1 (stereo not drawn) | – | – | 30 | – | 35 | – | 20 | 25
6 | COP(=O)(OC)C(OC(=O)COc1ccc(Cl)cc1C)c1ccco1 (stereo not drawn) | – | – | 85 | – | 60 | – | 80 | 80
7 | COP(=O)(OC)C(OC(=O)COc1ccc(Cl)c(C)c1)c1ccco1 (stereo not drawn) | – | – | 80 | – | 75 | – | 80 | 80
8 | COP(=O)(OC)C(OC(=O)COc1ccc(F)cc1F)c1ccco1 (stereo not drawn) | – | – | 60 | – | 40 | – | 40 | 50
9 | COP(=O)(OC)C(OC(=O)COc1cc(Cl)c(Cl)cc1Cl)c1ccco1 (stereo not drawn) | – | – | 85 | – | 80 | – | 75 | 75
10 | COP(=O)(OC)C(OC(=O)COc1ccc(C#N)cc1)c1cccs1 (stereo not drawn) | 40 | 60 | 30 | 40 | 0 | 40 | 30 | 40
11 | COP(=O)(OC)C(OC(=O)COc1cccc(C(F)(F)F)c1)c1cccs1 (stereo not drawn) | – | – | 30 | – | 15 | – | 20 | 20
12 | COP(=O)(OC)C(OC(=O)COc1ccc(C(F)(F)F)cc1)c1cccs1 (stereo not drawn) | – | – | 20 | – | 30 | – | 15 | 20
13 | COP(=O)(OC)C(OC(=O)COc1ccccc1F)c1cccs1 (stereo not drawn) | – | – | 0 | – | 20 | – | 0 | 15
14 | COP(=O)(OC)C(OC(=O)COc1ccc(F)cc1F)c1cccs1 (stereo not drawn) | 80 | 70 | 70 | 70 | 60 | 75 | 60 | 60
15 | COP(=O)(OC)C(OC(=O)COc1ccc(Cl)cc1F)c1cccs1 (stereo not drawn) | 75 | 90 | 70 | 75 | 70 | 75 | 70 | 70
16 | COP(=O)(OC)C(OC(=O)COc1ccc(F)cc1Cl)c1cccs1 (stereo not drawn) | 95 | 85 | 75 | 100 | 80 | 90 | 70 | 90
17 | COP(=O)(OC)C(OC(=O)COc1cc(Cl)c(Cl)cc1Cl)c1cccs1 (stereo not drawn) | 95 | 50 | 80 | 90 | 80 | 85 | 80 | 80
18 | COP(=O)(OC)C(OC(=O)COc1ccccc1)c1ccco1 (stereo not drawn) | – | – | 28 | – | 31 | – | 22 | 6
19 | COP(=O)(OC)C(OC(=O)COc1cccc(C)c1)c1ccco1 (stereo not drawn) | – | – | 37 | – | 30 | – | 39 | 36
20 | COP(=O)(OC)C(OC(=O)COc1ccc(C)cc1)c1ccco1 (stereo not drawn) | – | – | 36 | – | 30 | – | 32 | 23
21 | COP(=O)(OC)C(OC(=O)COc1cccc(C)c1C)c1ccco1 (stereo not drawn) | – | – | 40 | – | 30 | – | 50 | 50
22 | COP(=O)(OC)C(OC(=O)COc1ccc(Br)cc1)c1ccco1 (stereo not drawn) | – | – | 75 | – | 60 | – | 40 | 60
23 | COP(=O)(OC)C(OC(=O)COc1ccccc1Cl)c1ccco1 (stereo not drawn) | – | – | 40 | – | 30 | – | 0 | 40
24 | COP(=O)(OC)C(OC(=O)COc1ccc(C#N)cc1)c1ccco1 (stereo not drawn) | – | – | 40 | – | 30 | – | 40 | 50
25 | COP(=O)(OC)C(OC(=O)COc1cccc(C(F)(F)F)c1)c1ccco1 (stereo not drawn) | – | – | 0 | – | 0 | – | 0 | 0
26 | COP(=O)(OC)C(OC(=O)COc1ccc(C(F)(F)F)cc1)c1ccco1 (stereo not drawn) | – | – | 0 | – | 0 | – | 0 | 0
27 | COP(=O)(OC)C(OC(=O)COc1ccccc1F)c1ccco1 (stereo not drawn) | – | – | 75 | – | 60 | – | 40 | 60
28 | COP(=O)(OC)C(OC(=O)COc1ccc(Cl)cc1F)c1ccco1 (stereo not drawn) | – | – | 75 | – | 70 | – | 70 | 60
29 | COP(=O)(OC)C(OC(=O)COc1ccc(F)cc1Cl)c1ccco1 (stereo not drawn) | – | – | 85 | – | 75 | – | 75 | 90
